Reference: patent publication US12539326B2, “Methods for treating Alzheimer's disease using semaglutide” (Novo Nordisk A/S, priority 2019, dated 2026)

Columns and labels:
[1] = system: SAMP8 mice; assay: Y-maze test (short-term memory) in SAMP8 mice; type: in vivo, mouse; conditions: SAMP8 mice at 16 weeks of age; 30 nmol/kg s.c. once a day; mean, SEM 1.6%; vehicle 42.8%; p<0.0001
Excerpt: Here, SAMP8 mice were utilized to characterize the impact of semaglutide treatment on memory deficits and cognitive decline. Two behavioural tests commonly used to assess cognitive deficits in rodents were employed to assay effects on short-term memory (Y-maze test) and long-term memory (step-through passive avoidance test). The Y-maze is test of short-term memory, assessing spatial working memory and exploratory behaviour by measuring spontaneous alternations, which is the frequency of entering a new arm of the maze rather than returning to one that was previously visited (described in methods). The step-through passive avoidance test measures associative long-term memory by assessing the learning of an association of an aversive stimulus to a particular context (described in methods). SAMP8 mice have measurable deficits in both tests as they age. […]
Testing in the Y-maze was performed at 8 weeks of age and 16 weeks of age, at approximately 15 and 71 days following treatment initiation respectively. […] The series of arm entries including possible returns into the same arm was monitored and alternation was defined as entries into all three arms on consecutive occasions. The number of maximum alternations was therefore the total number of arm entries minus two and the percentage of alternation was be calculated as (actual alternations/maximum alternations)×100.

[2] = system: SAMP8 mice; assay: Step-through passive avoidance test (long-term memory) in SAMP8 mice; type: in vivo, mouse; conditions: SAMP8 mice at 18 weeks of age, retention test, 30 nmol/kg s.c. once a day, mean
Excerpt: Here, SAMP8 mice were utilized to characterize the impact of semaglutide treatment on memory deficits and cognitive decline. Two behavioural tests commonly used to assess cognitive deficits in rodents were employed to assay effects on short-term memory (Y-maze test) and long-term memory (step-through passive avoidance test). The Y-maze is test of short-term memory, assessing spatial working memory and exploratory behaviour by measuring spontaneous alternations, which is the frequency of entering a new arm of the maze rather than returning to one that was previously visited (described in methods). The step-through passive avoidance test measures associative long-term memory by assessing the learning of an association of an aversive stimulus to a particular context (described in methods). SAMP8 mice have measurable deficits in both tests as they age.
The experiment was carried out using SAMP8 mice with the following treatment groups: SAMP8 vehicle treated (n=24) and SAMP8 semaglutide (30 nmol/kg) treated (n=11). […]
The step through passive avoidance performance was performed at 18 weeks of age. […] The step-through latency was recorded up to 300 s, defined as the time it took the mouse to enter the darkened compartment during the retention test. Escape latency was as recorded, defined as the time in the retention test to escape the darkened chamber following the application of a footshock.

[3] = system: Patients with type 2 diabetes at high risk for or with established cardiovascular disease; assay: Dementia in pooled double-blind RCTs (LEADER, SUSTAIN-6, PIONEER 6), GLP-1 receptor agonist versus placebo; type: in vivo, human; conditions: each RCT, active arm vs. placebo; for Dementia SMQ GLP-1 Receptor Agonists no. of events: median follow-up 3.8 years (LEADER), 2.1 years (SUSTAIN-6), 1.3 years (PIONEER 6)
Procedure: Exposure to GLP-1 receptor agonist and subsequent diagnosis of dementia was assessed in data sources with long term treatment exposure including three pooled double-blind randomized controlled trials (RCTs) and a nationwide cohort of patients with diabetes. This was done with the aim of investigating whether use of GLP-1 receptor agonists reduces the onset of dementia in patients with diabetes.
A triangulation approach integrating study designs and data sources with different key sources of potential bias was employed to obtain a more reliable answer. First, data was pooled from three large RCTs with GLP-1 receptor agonists; liraglutide (LEADER; 9,340 patients), subcutaneous semaglutide (SUSTAIN-6; 3,297 patients), and oral semaglutide (PIONEER 6; 3,183 patients). All three trials were multicenter, double-blind, placebo-controlled cardiovascular outcomes trials. Patients with type 2 diabetes at high risk for or with established cardiovascular disease were randomly assigned in a 1:1 ratio, to receive placebo or liraglutide (LEADER), or semaglutide (SUSTAIN-6; PIONEER 6) in addition to standard of care. In these trials, the treatment for diabetes (excluding GLP-1 receptor agonists, dipeptidyl peptidase-4 inhibitors (DPP4 inhibitors), and pramlintide) was adjusted or added in both arms, at the investigator's discretion, as previously described. The formulation tested in LEADER was an aqueous composition comprising liraglutide, disodium phosphate dihydrate, propylene glycol, and phenol at pH 8.15. The formulation tested in SUSTAIN-6 was an aqueous composition comprising semaglutide, disodium phosphate dihydrate, propylene glycol, and phenol at pH 7.4. The formulation tested in PIONEER was a tablet comprising semaglutide and SNAC. […]
For the pooled RCTs, an intention-to-treat analysis was performed using Cox regression with treatment assignment as the only explanatory variable to determine the hazard ratio for developing dementia with GLP-1 receptor agonists versus placebo. […] The incidence of dementia with death as competing risk was calculated using the Aalen-Johansen estimator.

[4] = system: microglial inflammatory marker Iba1 in the hippocampus; assay: LPS-induced neuroinflammation in mice, Iba1 immunohistochemistry of the hippocampus; type: in vivo, mouse; conditions: C57BL/6 mice, Day 28, LPS+semaglutide 30 nmol/kg s.c. once per day; mean, SEM 0.49%; LPS+vehicle 12.17%; p<0.01
Excerpt: LPS-induced neuroinflammation is used as a non-genetic model of Alzheimer's disease in rodents. LPS is an endotoxin from gram-negative bacteria that provides a persistent inflammatory stimulus activating brain immune cells (neuroimmune cells). Microglia are a brain immune cell type activated by LPS, and the degree of neuroinflammation can be assessed by the area of microglia in brain tissue as measured by the microglia-specific marker ionized calcium binding adaptor molecule 1 (Iba1).
Here, LPS-induced neuroinflammation in mice was used to assess the impact of semaglutide on attenuating brain inflammation in the hippocampus, a brain region involved in memory and learning which is deteriorated in Alzheimer's Disease.
The experiment was carried out using C57BL/6 mice at 8-10 weeks of age. […]
Immediately after termination, whole brains were collected for immunohistochemical (IHC) analyses of neuroinflammation markers. […] The primary antibody was detected using a linker secondary antibody followed by amplification using a polymeric HRP-linker antibody conjugate. […]
Quantitative assessment of Iba1 signal was performed to measure the area of microglia in the hippocampus of the tissue section. […] The quantitative estimates of IHC-positive staining were calculated as an area fraction (AF) of the total tissue area where: […]

“N-epsilon26-[2-(2-{2-[2-(2-{2-[(S)-4-Carboxy-4-(17-carboxyheptadecanoylamino)butyrylamino] ethoxy}ethoxy)acetylamino]ethoxy} ethoxy)acetyl][Aib8,Arg34]GLP-1-(7-37) [semaglutide]” was tested, and the “percentage alternation behaviour in the Y-maze” value [1] was 79.1%, the escape latency ([2]; SEM 3.0 seconds, vehicle 88.8 seconds, p=0.01) was 19.0 s and the step-through latency ([2]; SEM 14.5 seconds, vehicle 109.8 seconds, p<0.0001) was 260.5 s. The “Dementia SMQ GLP-1 Receptor Agonists no. of events” value ([3]; listed as Semaglutide (oral)) was 0, the “Dementia SMQ GLP-1 Receptor Agonists no. of events” value ([3]; listed as Semaglutide (s.c)) was 3 and the “Dementia SMQ GLP-1 Receptor Agonists rate” value ([3]; unit not printed in table (b13 gives pooled rates per 1000 patient-years)) was 0.88. For the same substance, the “hippocampal Iba1 area (area fraction)” value [4] was 8.53%.
